Assay results taken from US12269800B2, “Delivery of therapeutic alkaloid compounds” (priority 2021, dated 2025).
Read-outs that look alike come from different tables or passages of the source.

How the values were obtained:
[1] = 5 µM
Description: (§1) 50 uL aliquots of positive controls and test compounds spiked into rat or human plasma (n=2) were added to a pre-warmed plate (37° C.) and shaken at 50 rpm. At each respective time point, the reaction was stopped by adding 500 μL of acetonitrile containing internal standards (100 nM aprozolam, 200 nM caffeine, 100 nM tolbutamide). All samples were vortexed for 10 minutes, followed by centrifugation at 3,220 g for 30 minutes to precipitate proteins. 100 μL of the supernatant is transferred to a new plate. The supernatant will be diluted with ultrapure water according to the LC-MS signal response and peak shape.

[2] = 5 µM; remark: listed apart in the source
Description: as §1

Structure (SMILES)	Human Plasma Prodrug (%) ([1]; 0 min)	Human Plasma Prodrug (%) ([1]; 10 min)	Human Plasma Prodrug (%) ([1]; 30 min)	Human Plasma Prodrug (%) ([1]; 60 min)	Human Plasma Prodrug (%) ([1]; 120 min)	Human Plasma Prodrug (%) ([1]; 240 min)	Rat Plasma Prodrug (%) ([2]; 0 min)	Rat Plasma Prodrug (%) ([2]; 10 min)	Rat Plasma Prodrug (%) ([2]; 30 min)	Rat Plasma Prodrug (%) ([2]; 60 min)	Rat Plasma Prodrug (%) ([2]; 120 min)	Rat Plasma Prodrug (%) ([2]; 240 min)
COc1ccc([C@@]23CCC(OC(=O)CCN)=C[C@@H]2N(C)CC3)cc1OC [Compound 397, (3aS,7aS)-3a-(3,4-dimethoxyphenyl)-1-methyl-2,3,3a,4,5,7a-hexahydro-1H-indol-6-yl 3-aminopropanoate]	100.0%	2.2%	0.5%	0.1%	0.2%	0.0%	100.0%	10.5%	0.5%	0.1%	0.1%	0.1%
CCCC(CC)CC(=O)OC1=C[C@@H]2N(C)CC[C@]2(c2ccc(OC)c(OC)c2)CC1 (stereo partly drawn) [Compound 398, (3aS,7aS)-3a-(3,4-dimethoxyphenyl)-1-methyl-2,3,3a,4,5,7a-hexahydro-1H-indol-6-yl 3-ethylhexanoate]	100.0%	96.4%	85.0%	72.4%	51.6%	25.5%	100.0%	2.8%	0.7%	0.1%	0.0%	0.0%
COc1ccc([C@@]23CCC(OC(=O)CCC(C)C)=C[C@@H]2N(C)CC3)cc1OC [Compound 399, (3aS,7aS)-3a-(3,4-dimethoxyphenyl)-1-methyl-2,3,3a,4,5,7a-hexahydro-1H-indol-6-yl 4-methylpentanoate]	100.0%	5.6%	1.1%	0.5%	0.3%	0.2%	100.0%	0.0%	0.0%	0.0%	0.0%	0.0%
CCCCCC(C)C(=O)OC1=C[C@@H]2N(C)CC[C@]2(c2ccc(OC)c(OC)c2)CC1 (stereo partly drawn) [Compound 400, (3aS,7aS)-3a-(3,4-dimethoxyphenyl)-1-methyl-2,3,3a,4,5,7a-hexahydro-1H-indol-6-yl 2-methylheptanoate]	100.0%	34.7%	11.6%	5.2%	2.3%	1.9%	100.0%	12.6%	0.6%	0.1%	0.1%	0.0%
CCCCC(CC)C(=O)OC1=C[C@@H]2N(C)CC[C@]2(c2ccc(OC)c(OC)c2)CC1 (stereo partly drawn) [Compound 401, (3aS,7aS)-3a-(3,4-dimethoxyphenyl)-1-methyl-2,3,3a,4,5,7a-hexahydro-1H-indol-6-yl 2-ethylhexanoate]	100.0%	95.9%	>99%	96.6%	94.4%	93.4%	100.0%	84.5%	55.8%	33.8%	16.3%	3.3%
CCCC(C)C(=O)OC1=C[C@@H]2N(C)CC[C@]2(c2ccc(OC)c(OC)c2)CC1 (stereo partly drawn) [Compound 402, (3aS,7aS)-3a-(3,4-dimethoxyphenyl)-1-methyl-2,3,3a,4,5,7a-hexahydro-1H-indol-6-yl 2-methylpentanoate]	100.0%	11.3%	2.9%	2.1%	1.6%	1.1%	100.0%	3.5%	0.1%	0.0%	0.0%	0.0%
COCCCCC(=O)OC1=C[C@@H]2N(C)CC[C@]2(c2ccc(OC)c(OC)c2)CC1 [Compound 404, (3aS,7aS)-3a-(3,4-dimethoxyphenyl)-1-methyl-2,3,3a,4,5,7a-hexahydro-1H-indol-6-yl 5-methoxypentanoate]	100.0%	22.9%	11.5%	7.6%	3.8%	1.6%	100.0%	0.3%	0.3%	0.3%	0.3%	0.2%
COCCOCCC(=O)OC1=C[C@@H]2N(C)CC[C@]2(c2ccc(OC)c(OC)c2)CC1 [Compound 405, (3aS,7aS)-3a-(3,4-dimethoxyphenyl)-1-methyl-2,3,3a,4,5,7a-hexahydro-1H-indol-6-yl 3-(2-methoxyethoxy)propanoate]	100.0%	>99%	95.0%	87.0%	65.7%	46.7%	100.0%	0.1%	0.0%	0.1%	0.0%	0.0%
CCC(C)C(=O)OC1=C[C@@H]2N(C)CC[C@]2(c2ccc(OC)c(OC)c2)CC1 (stereo partly drawn) [Compound 425, (3aS,7aS)-3a-(3,4-dimethoxyphenyl)-1-methyl-2,3,3a,4,5,7a-hexahydro-1H-indol-6-yl 2-methylbutanoate]	100.0%	6.5%	4.8%	4.0%	3.0%	1.9%	100.0%	4.4%	0.1%	0.0%	0.0%	0.0%
CCC(CC)C(=O)OC1=C[C@@H]2N(C)CC[C@]2(c2ccc(OC)c(OC)c2)CC1 [Compound 426, (3aS,7aS)-3a-(3,4-dimethoxyphenyl)-1-methyl-2,3,3a,4,5,7a-hexahydro-1H-indol-6-yl 2-ethylbutanoate]	100.0%	87.1%	80.3%	79.2%	73.6%	66.4%	100.0%	70.2%	33.2%	9.5%	0.9%	0.1%
CCCC(CCC)C(=O)OC1=C[C@@H]2N(C)CC[C@]2(c2ccc(OC)c(OC)c2)CC1 [Compound 427, (3aS,7aS)-3a-(3,4-dimethoxyphenyl)-1-methyl-2,3,3a,4,5,7a-hexahydro-1H-indol-6-yl 2-propylpentanoate]	100.0%	>99%	96.6%	96.9%	95.5%	91.2%	100.0%	93.6%	73.4%	43.9%	16.0%	2.3%
CCC(C)(C)C(=O)OC1=C[C@@H]2N(C)CC[C@]2(c2ccc(OC)c(OC)c2)CC1 [Compound 428, (3aS,7aS)-3a-(3,4-dimethoxyphenyl)-1-methyl-2,3,3a,4,5,7a-hexahydro-1H-indol-6-yl 2,2-dimethylbutanoate]	100.0%	82.9%	74.5%	69.1%	56.8%	46.0%	100.0%	90.3%	69.9%	41.7%	18.1%	3.9%
CCCC(C)(C)C(=O)OC1=C[C@@H]2N(C)CC[C@]2(c2ccc(OC)c(OC)c2)CC1 [Compound 429, (3aS,7aS)-3a-(3,4-dimethoxyphenyl)-1-methyl-2,3,3a,4,5,7a-hexahydro-1H-indol-6-yl 2,2-dimethylpentanoate]	100.0%	>99%	96.3%	95.3%	91.8%	84.6%	100.0%	90.4%	83.9%	71.9%	50.8%	26.2%
CCC(C)(CC)C(=O)OC1=C[C@@H]2N(C)CC[C@]2(c2ccc(OC)c(OC)c2)CC1 [Compound 430, (3aS,7aS)-3a-(3,4-dimethoxyphenyl)-1-methyl-2,3,3a,4,5,7a-hexahydro-1H-indol-6-yl 2-ethyl-2-methylbutanoate]	100.0%	>99%	>99%	>99%	>99%	95.9%	100.0%	98.2%	98.3%	97.1%	94.1%	92.8%
